Results: publication PMC5218480 (PLoS ONE, 2017)

Test system: MV-4-11 cells
Assay: Gene expression microarray analysis (Affymetrix PrimeView) and GSEA
Format: cell-based, human
Design: RFU PODN (11730768_x_at) / Fold change /veh PODN (11730768_x_at) / RFU LINC00158 (11744669_a_at) / Fold change /veh LINC00158 (11744669_a_at) / RFU DUSP10 (11751237_a_at) / Fold change /veh DUSP10 (11751237_a_at) / RFU ID3 (11757404_x_at) / Fold change /veh ID3 (11757404_x_at) / RFU PLEKHG5 (11737974_s_at) / Fold change /veh PLEKHG5 (11737974_s_at) / RFU LRRC4B (11730491_at) / Fold change /veh LRRC4B (11730491_at) / RFU GIMAP4 (11747438_a_at) / Fold change /veh GIMAP4 (11747438_a_at) / RFU KRT8 (11758183_x_at) / Fold change /veh KRT8 (11758183_x_at) / RFU CNN1 (11734310_a_at) / Fold change /veh CNN1 (11734310_a_at) / RFU VPS37D (11726825_at) / Fold change /veh VPS37D (11726825_at) / RFU C10orf10 (11716522_x_at) / Fold change /veh C10orf10 (11716522_x_at) / RFU KIR2DL2 /// KIR2DL4 /// KIR2DL5A /// KIR2DL5B /// KIR2DS1 /// KIR2DS2 /// KIR2DS3 /// KIR2DS4 /// KIR3DL3 /// KIR3DL3 /// KIR3DS1 (11738374_at) / Fold change /veh KIR2DL2 /// KIR2DL4 /// KIR2DL5A /// KIR2DL5B /// KIR2DS1 /// KIR2DS2 /// KIR2DS3 /// KIR2DS4 /// KIR3DL3 /// KIR3DL3 /// KIR3DS1 (11738374_at) / RFU C1QL1 (11718748_at) / Fold change /veh C1QL1 (11718748_at) / RFU TMPRSS4 (11747572_a_at) / Fold change /veh TMPRSS4 (11747572_a_at) / RFU HAMP (11756126_x_at) / Fold change /veh HAMP (11756126_x_at) / RFU RNFT2 (11725882_a_at) / Fold change /veh RNFT2 (11725882_a_at) / RFU NR4A2 (11747474_a_at) / Fold change /veh NR4A2 (11747474_a_at) / RFU ABCC12 (11746883_a_at) / Fold change /veh ABCC12 (11746883_a_at) / RFU TMEM136 (11760407_x_at) / Fold change /veh TMEM136 (11760407_x_at) / RFU CLDN22 /// WWC2 (11732394_at) / Fold change /veh CLDN22 /// WWC2 (11732394_at) / RFU HLA-DPB1 (11760878_x_at) / Fold change /veh HLA-DPB1 (11760878_x_at) / RFU SPINT1 (11716480_a_at) / Fold change /veh SPINT1 (11716480_a_at) / RFU GAP43 (11754022_s_at) / Fold change /veh GAP43 (11754022_s_at) / RFU A4GNT (11735810_at) / Fold change /veh A4GNT (11735810_at) / RFU PRB3 (11715151_x_at) / Fold change /veh PRB3 (11715151_x_at) / RFU TUBB4B (11761932_at) / Fold change /veh TUBB4B (11761932_at) / RFU CAPN14 (11732068_a_at) / Fold change /veh CAPN14 (11732068_a_at) / RFU TMCC2 (11721928_a_at) / Fold change /veh TMCC2 (11721928_a_at) / RFU IRGQ (11745062_a_at) / Fold change /veh IRGQ (11745062_a_at) / RFU FAM174B (11720279_a_at) / Fold change /veh FAM174B (11720279_a_at) / RFU TMPRSS4 (11748680_a_at) / Fold change /veh TMPRSS4 (11748680_a_at) / RFU FAM212B (11763350_a_at) / Fold change /veh FAM212B (11763350_a_at) / RFU PLEKHG5 (11743358_a_at) / Fold change /veh PLEKHG5 (11743358_a_at) / RFU ZSCAN30 (11745921_a_at) / Fold change /veh ZSCAN30 (11745921_a_at) / RFU CMKLR1 (11741424_a_at) / Fold change /veh CMKLR1 (11741424_a_at) / RFU LOC101060620 /// MAPK8IP1 (11723275_at) / Fold change /veh LOC101060620 /// MAPK8IP1 (11723275_at) / RFU SPTSSB (11747773_x_at) / Fold change /veh SPTSSB (11747773_x_at) / RFU PRSS12 (11739890_at) / Fold change /veh PRSS12 (11739890_at) / RFU BIN1 (11741810_x_at) / Fold change /veh BIN1 (11741810_x_at) / RFU WNT11 (11732464_a_at) / Fold change /veh WNT11 (11732464_a_at) / RFU C10orf10 (11716521_a_at) / Fold change /veh C10orf10 (11716521_a_at) / RFU C5orf56 (11738089_at) / Fold change /veh C5orf56 (11738089_at) / RFU CYB561 (11721691_x_at) / Fold change /veh CYB561 (11721691_x_at) / RFU ANKRD19P (11752326_a_at) / Fold change /veh ANKRD19P (11752326_a_at) / RFU OR2T12 /// OR2T33 /// OR2T8 (11738714_s_at) / Fold change /veh OR2T12 /// OR2T33 /// OR2T8 (11738714_s_at) / RFU VCAN (11748164_a_at) / Fold change /veh VCAN (11748164_a_at) / RFU JSRP1 (11732532_at) / Fold change /veh JSRP1 (11732532_at) / RFU KRTAP10-11 (11738290_x_at) / Fold change /veh KRTAP10-11 (11738290_x_at) / RFU MYO3A (11730013_a_at) / Fold change /veh MYO3A (11730013_a_at) / RFU EBF3 (11725865_a_at) / Fold change /veh EBF3 (11725865_a_at) / RFU CAMK2N1 (11719241_x_at) / Fold change /veh CAMK2N1 (11719241_x_at) / RFU C5orf56 (11738088_a_at) / Fold change /veh C5orf56 (11738088_a_at) / RFU OLFML3 (11715873_a_at) / Fold change /veh OLFML3 (11715873_a_at) / RFU LOC100653217 /// NTM (11731650_a_at) / Fold change /veh LOC100653217 /// NTM (11731650_a_at) / RFU MAPK11 (11762145_a_at) / Fold change /veh MAPK11 (11762145_a_at) / RFU FIZ1 (11724087_x_at) / Fold change /veh FIZ1 (11724087_x_at) / RFU OASL (11726364_x_at) / Fold change /veh OASL (11726364_x_at) / RFU SOX15 (11748057_x_at) / Fold change /veh SOX15 (11748057_x_at) / RFU CD79A (11719716_a_at) / Fold change /veh CD79A (11719716_a_at) / RFU HIST1H1D (11736915_at) / Fold change /veh HIST1H1D (11736915_at) / RFU CASKIN2 (11723855_a_at) / Fold change /veh CASKIN2 (11723855_a_at) / RFU LOC730098 (11760151_x_at) / Fold change /veh LOC730098 (11760151_x_at) / RFU OR4N2 (11742367_at) / Fold change /veh OR4N2 (11742367_at) / RFU PRRT2 (11749266_a_at) / Fold change /veh PRRT2 (11749266_a_at) / RFU SNX32 (11753110_a_at) / Fold change /veh SNX32 (11753110_a_at) / RFU CDHR5 (11726645_a_at) / Fold change /veh CDHR5 (11726645_a_at) / RFU RCAN1 (11760418_a_at) / Fold change /veh RCAN1 (11760418_a_at) / RFU FAM167A (11723789_a_at) / Fold change /veh FAM167A (11723789_a_at) / RFU FAM26E (11764081_at) / Fold change /veh FAM26E (11764081_at) / RFU ISYNA1 (11749810_s_at) / Fold change /veh ISYNA1 (11749810_s_at) / RFU ACY1 (11761880_at) / Fold change /veh ACY1 (11761880_at) / RFU 11764098_at / Fold change /veh 11764098_at / RFU SAMD14 (11745864_x_at) / Fold change /veh SAMD14 (11745864_x_at) / RFU NPB (11741838_a_at) / Fold change /veh NPB (11741838_a_at) / RFU TMPRSS6 (11731388_a_at) / Fold change /veh TMPRSS6 (11731388_a_at) / RFU KRTAP10-2 (11738614_at) / Fold change /veh KRTAP10-2 (11738614_at) / RFU ARHGAP8 /// PRR5-ARHGAP8 (11727945_x_at) / Fold change /veh ARHGAP8 /// PRR5-ARHGAP8 (11727945_x_at) / RFU KRTAP5-7 /// NADSYN1 (11734609_at) / Fold change /veh KRTAP5-7 /// NADSYN1 (11734609_at) / RFU RASL12 (11751679_a_at) / Fold change /veh RASL12 (11751679_a_at) / RFU CDKN2B (11736163_a_at) / Fold change /veh CDKN2B (11736163_a_at) / RFU PRF1 (11729649_at) / Fold change /veh PRF1 (11729649_at) / RFU, ZNF638 /// ZNF638-IT1 / Fold change vs veh, ZNF638 /// ZNF638-IT1 / RFU, PANK3 / Fold change vs veh, PANK3 / RFU, SH3YL1 / Fold change vs veh, SH3YL1 / RFU, ZEB2 / Fold change vs veh, ZEB2 / RFU, NRIP1 / Fold change vs veh, NRIP1 / RFU, PTTG1IP / Fold change vs veh, PTTG1IP / RFU, CAPN2 / Fold change vs veh, CAPN2 / RFU, MED14 / Fold change vs veh, MED14 / RFU, SNORA58 / Fold change vs veh, SNORA58 / RFU, C1orf63 / Fold change vs veh, C1orf63 / RFU, LRRFIP1 / Fold change vs veh, LRRFIP1 / RFU, NDUFAF7 / Fold change vs veh, NDUFAF7 / RFU, SLC12A2 / Fold change vs veh, SLC12A2 / RFU, IBTK / Fold change vs veh, IBTK / RFU, ESF1 / Fold change vs veh, ESF1 / Fold change vs veh, TMEM50B / RFU, TAOK1 / Fold change vs veh, TAOK1 / RFU, ACBD3 / Fold change vs veh, ACBD3 / RFU, TMA16 / Fold change vs veh, TMA16 / RFU, RWDD3 / Fold change vs veh, RWDD3 / RFU, BCAT1 / Fold change vs veh, BCAT1 / RFU, EDEM3 / Fold change vs veh, EDEM3 / RFU, TMEM33 / Fold change vs veh, TMEM33 / RFU, WDR75 / Fold change vs veh, WDR75 / RFU, AHCTF1 / Fold change vs veh, AHCTF1 / RFU, TFRC / Fold change vs veh, TFRC / RFU, ZDHHC17 / Fold change vs veh, ZDHHC17 / RFU, NOM1 / Fold change vs veh, NOM1 / RFU, ARL8B / Fold change vs veh, ARL8B / RFU, ZBTB11 / Fold change vs veh, ZBTB11 / RFU, TAMM41 / Fold change vs veh, TAMM41 / RFU, KIAA1704 /// LOC100996395 / Fold change vs veh, KIAA1704 /// LOC100996395 / RFU, ING1 / Fold change vs veh, ING1 / RFU, TRMT61B / Fold change vs veh, TRMT61B / RFU, FUBP3 / Fold change vs veh, FUBP3 / RFU, TP53 / Fold change vs veh, TP53 / RFU, TNKS2 / Fold change vs veh, TNKS2 / RFU, ZFP14 / Fold change vs veh, ZFP14 / RFU, ACTR2 / Fold change vs veh, ACTR2 / RFU, PPP3R1 / Fold change vs veh, PPP3R1 / RFU, PIK3R1 / Fold change vs veh, PIK3R1 / RFU, HNRNPA1 / Fold change vs veh, HNRNPA1 / RFU, RNF170 / Fold change vs veh, RNF170 / RFU, ZNF28 / Fold change vs veh, ZNF28 / RFU, RNGTT / Fold change vs veh, RNGTT / RFU, OGT / Fold change vs veh, OGT / RFU, BRD1 / Fold change vs veh, BRD1 / RFU, MARS / Fold change vs veh, MARS / RFU, ZNF655 / Fold change vs veh, ZNF655 / RFU, FAHD1 / Fold change vs veh, FAHD1 / RFU, BDP1 / Fold change vs veh, BDP1 / RFU, LRRCC1 / Fold change vs veh, LRRCC1 / RFU, ARID1A / Fold change vs veh, ARID1A / RFU, ZNF146 / Fold change vs veh, ZNF146 / RFU, ZNF330 / Fold change vs veh, ZNF330 / RFU, GPN3 / Fold change vs veh, GPN3 / RFU, C9orf123 / Fold change vs veh, C9orf123 / RFU, N4BP2L2 / Fold change vs veh, N4BP2L2 / RFU, ARFIP1 / Fold change vs veh, ARFIP1 / RFU, FAM179B / Fold change vs veh, FAM179B / RFU, BCL10 / Fold change vs veh, BCL10 / RFU, UHRF1BP1L / Fold change vs veh, UHRF1BP1L / RFU, BET1 / Fold change vs veh, BET1 / RFU, CNOT2 / Fold change vs veh, CNOT2 / RFU, ZNF268 / Fold change vs veh, ZNF268 / Fold change vs veh, ZNF507 / RFU, DGCR2 / Fold change vs veh, DGCR2 / RFU, WDSUB1 / Fold change vs veh, WDSUB1 / Fold change vs veh, HSP90B1 /// MIR3652 / RFU, ADSS / Fold change vs veh, ADSS / RFU, GK / Fold change vs veh, GK / RFU, ZNF148 / Fold change vs veh, ZNF148 / RFU, TAF9 / Fold change vs veh, TAF9 / RFU, SLC1A5 / Fold change vs veh, SLC1A5 / RFU, SLMO2 / Fold change vs veh, SLMO2 / RFU, ABCC4 / Fold change vs veh, ABCC4 / RFU, LOC101060439 /// RAP1B / Fold change vs veh, LOC101060439 /// RAP1B / RFU, RFX7 / Fold change vs veh, RFX7 / RFU, GTPBP10 / Fold change vs veh, GTPBP10 / RFU, CNEP1R1 / Fold change vs veh, CNEP1R1 / RFU, BIVM-ERCC5 /// ERCC5 / Fold change vs veh, BIVM-ERCC5 /// ERCC5 / RFU, ILF3 / Fold change vs veh, ILF3 / RFU 11762660_at / Fold change /veh 11762660_at / RFU VCAN (11757783_s_at) / Fold change /veh VCAN (11757783_s_at) / RFU DDX43 (11728927_at) / Fold change /veh DDX43 (11728927_at) / RFU KRT8 (11758188_x_at) / Fold change /veh KRT8 (11758188_x_at) / RFU NKD1 (11759106_at) / Fold change /veh NKD1 (11759106_at) / RFU SRD5A1 (11742802_a_at) / Fold change /veh SRD5A1 (11742802_a_at) / RFU TPSAB1 /// TPSB2 (11721975_s_at) / Fold change /veh TPSAB1 /// TPSB2 (11721975_s_at) / RFU GSTM3 (11746129_a_at) / Fold change /veh GSTM3 (11746129_a_at) / RFU IL23R (11737362_x_at) / Fold change /veh IL23R (11737362_x_at) / RFU TMEM51 (11727254_a_at) / Fold change /veh TMEM51 (11727254_a_at) / RFU PIWIL2 (11732686_x_at) / Fold change /veh PIWIL2 (11732686_x_at) / RFU ORM1 (11744905_x_at) / Fold change /veh ORM1 (11744905_x_at) / RFU CCDC152 (11743942_at) / Fold change /veh CCDC152 (11743942_at) / RFU ECM1 (11717891_a_at) / Fold change /veh ECM1 (11717891_a_at) / RFU IL23R (11748794_a_at) / Fold change /veh IL23R (11748794_a_at) / RFU TNFAIP8L3 (11732012_x_at) / Fold change /veh TNFAIP8L3 (11732012_x_at) / RFU MBOAT4 (11741988_at) / Fold change /veh MBOAT4 (11741988_at) / RFU 11764193_at / Fold change /veh 11764193_at / RFU TMEM53 (11763286_at) / Fold change /veh TMEM53 (11763286_at) / RFU MAGEB2 (11727129_at) / Fold change /veh MAGEB2 (11727129_at) / RFU TMEM200A (11744735_a_at) / Fold change /veh TMEM200A (11744735_a_at) / RFU CCDC152 (11751479_a_at) / Fold change /veh CCDC152 (11751479_a_at) / RFU FAM211A (11726209_a_at) / Fold change /veh FAM211A (11726209_a_at) / RFU RGS16 (11746705_a_at) / Fold change /veh RGS16 (11746705_a_at) / RFU VCAN (11755009_s_at) / Fold change /veh VCAN (11755009_s_at) / RFU RHOB (11743442_s_at) / Fold change /veh RHOB (11743442_s_at) / RFU RGS16 (11720943_a_at) / Fold change /veh RGS16 (11720943_a_at) / RFU RGS16 (11720944_at) / Fold change /veh RGS16 (11720944_at) / RFU, VPS4B / Fold change vs veh, VPS4B / RFU, CREB1 / Fold change vs veh, CREB1 / RFU, DNAJC13 / Fold change vs veh, DNAJC13 / RFU, GNAQ / Fold change vs veh, GNAQ / RFU, CDK5R1 / Fold change vs veh, CDK5R1 / RFU, ZRANB3 / Fold change vs veh, ZRANB3 / RFU, CUL4A / Fold change vs veh, CUL4A / RFU, CCNY / Fold change vs veh, CCNY / RFU, UFL1 / Fold change vs veh, UFL1 / RFU, COG3 / Fold change vs veh, COG3 / RFU, DIAPH2 / Fold change vs veh, DIAPH2 / RFU, SKA2 / Fold change vs veh, SKA2 / RFU, AFF3 / Fold change vs veh, AFF3 / RFU, LMF1 / Fold change vs veh, LMF1 / RFU, IPO11 / Fold change vs veh, IPO11 / RFU, DFFB / Fold change vs veh, DFFB / RFU, FOXP1 / Fold change vs veh, FOXP1 / RFU, CARD8 / Fold change vs veh, CARD8 / RFU, STRN3 / Fold change vs veh, STRN3 / RFU, ADK / Fold change vs veh, ADK / RFU, RASSF2 / Fold change vs veh, RASSF2 / RFU, WIPF1 / Fold change vs veh, WIPF1 / RFU, LARP1B / Fold change vs veh, LARP1B / RFU, RASA1 / Fold change vs veh, RASA1 / RFU, RB1 / Fold change vs veh, RB1 / RFU, PPFIA1 / Fold change vs veh, PPFIA1 / RFU, MAT2A / Fold change vs veh, MAT2A / RFU, CCT5 / Fold change vs veh, CCT5 / RFU, WDR92 / Fold change vs veh, WDR92 / RFU, CUX1 / Fold change vs veh, CUX1 / RFU, TTC7A / Fold change vs veh, TTC7A / RFU, TMEM135 / Fold change vs veh, TMEM135 / RFU, DEPTOR / Fold change vs veh, DEPTOR / RFU, CPM / Fold change vs veh, CPM / RFU, DNAJB6 / Fold change vs veh, DNAJB6 / RFU, CACNA2D3 / Fold change vs veh, CACNA2D3 / RFU, DTX4 / Fold change vs veh, DTX4 / RFU, TFCP2 / Fold change vs veh, TFCP2 / RFU, GMCL1 /// GMCL1P1 / Fold change vs veh, GMCL1 /// GMCL1P1 / RFU, AEBP2 / Fold change vs veh, AEBP2 / RFU, SNHG1 /// SNORD22 /// SNORD25 /// SNORD26 /// SNORD27 /// SNORD28 /// SNORD29 /// SNORD31 / Fold change vs veh, SNHG1 /// SNORD22 /// SNORD25 /// SNORD26 /// SNORD27 /// SNORD28 /// SNORD29 /// SNORD31 / Fold change (Aza/veh), C12orf56 (ProbeSet 11735607_a_at) / Fold change (ACY-1035/veh), C12orf56 (ProbeSet 11735607_a_at) / Fold change (Aza/veh), FGFR1OP (ProbeSet 11751329_s_at) / Fold change (ACY-1035/veh), FGFR1OP (ProbeSet 11751329_s_at) / Fold change (Aza/veh), VPS36 (ProbeSet 11739960_a_at) / Fold change (ACY-1035/veh), VPS36 (ProbeSet 11739960_a_at) / RFU SYPL1 (11715823_x_at) / Fold change /veh SYPL1 (11715823_x_at) / RFU IGFBP7 (11715501_s_at) / Fold change /veh IGFBP7 (11715501_s_at) / RFU REEP3 (11722064_at) / Fold change /veh REEP3 (11722064_at) / RFU IGLL1 (11728026_x_at) / Fold change /veh IGLL1 (11728026_x_at): dose or concentration left out as unconfirmed
Settings: MV-4-11 cells, 48 hours

**Q.** How did the “RFU MBOAT4 (11741988_at)” value turn out when `Nc1ccc(-c2cccs2)cc1NC(=O)c1ccc2c(c1)cc(C1CC1)n2CCN1CCOCC1` [ACY-1035] was run?
**A.** Its value is 8.81 RFU.
